Data reported in PubChem BioAssay (NCI).
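Grown in 96-well plates, cells were treated for 48 hours with each compound at five concentrations. Insufficient inhibition: endpoint recorded as highest concentration tested. The concentration for full growth arrest is given as TGI.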

Legend:
Assay in all cases: NCI tumour cell line growth inhibition, 48 h
M19-MEL melanoma = system: M19-MEL melanoma
RXF-631 renal = system: RXF-631 renal
P388 leukemia = system: P388 leukemia
P388/ADR leukemia = system: P388/ADR leukemia
SN12K1 renal = system: SN12K1 renal

| SMILES | TGI (M19-MEL melanoma) | TGI (RXF-631 renal) | TGI (P388 leukemia) | TGI (P388/ADR leukemia) | TGI (SN12K1 renal) |
| --- | --- | --- | --- | --- | --- |
| O=C(O)C1=C(CO)Oc2cc3c(cc2C1c1ccc2c(c1)OCO2)OCO3 (stereo not given) | > 100 µM | > 100 µM |  |  |  |
| O=P1(Oc2ccc(Cl)cc2Cl)Oc2cc3ccccc3cc2O1 |  |  | 32.6 µM | 64.1 µM | > 100 µM |
